Earlier results as cited in US6949260B2, “Method for treatment of inflammation and pain in mammals” (Metagenics, Inc., priority 2000, dated 2005).

What was measured:
[1] = system: human platelet; conditions: induced by arachidonic acid, adrenaline and collagen
[2] = system: thromboxane B2 production; conditions: in vitro

COc1cc(/C=C/C(=O)CC(=O)/C=C/c2ccc(O)c(OC)c2)ccc1O [Curcumin]
inhibition of human platelet aggregation [1]: inhibit human platelet aggregation | thromboxane B2 production from arachidonic acid [2]: inhibits thromboxane B2 production
